In patent US5620864A, “Acceptor for fucosyl transferase” (Health Research, Inc., priority 1992, dated 1997):
Values joined by “and” are separate entries in the source; they are usually repeats but may differ in a detail not shown here. Equal values may be shown once.

Assays:
[1] = test system: α1,3-L-fucosyltransferase of the particulate fraction of ovarian tumor; test: Assay of α1,3-fucosyltransferase with synthetic acceptors, ovarian tumor particulate fraction; format: biochemical, human; settings: for [14C] Fucose Incorporated (CPM): acceptor 3.0 mM, 37° C. 18 h
Description: FIG. 2 The scheme for the preparation of the particulate and soluble fractions of human ovarian tumor.
(§1) An incubation mixture contained 50 mM HEPES-NaOH, pH 7.5, 5 mM MnC12, 7 mM ATP, 3 mM NaN3, the acceptor 0.3 mM (for serum enzyme) or 3.0 mM (for tumor enzyme), 0.125 μCi of GDP-[U-^14 C] Fuc (Sp. Act. 216 mCi/mmol) and enzyme in a total volume of 0.10 ml; the control incubation mixture had everything except the acceptor. At the end of incubation at 37° C. for 18 h, the mixture was diluted with 1 ml water and passed through Dowex-1-C1 column (1 ml in a Pasteur pipet). The column was washed twice with 1 ml water; the breakthrough and wash, which contained the [^14 C] fucosylated neutral acceptor, were collected together in a scintillation vial and counted for radioactivity using the scintillation coctail 3a70 (Research Products International, Mount Prospects, Ill.) and Beckman LS9000. The Dowex column was then eluted successively with 3 ml each of 0.1M and 0.2M NaCl; these eluates which contained the [^14 C] fucosylated sulfated acceptors, were counted for radioactivity as before. Corrections were made by subtracting the radioactivity in the water and NaCl eluates of the control incubation mixture from the corresponding test fractions. The duplicate runs of samples gave almost identical values, the difference being <5%.
This finding is quite different from what we found with the soluble fraction, where α1,4-fucosyltransferase activity seems to be greater than α1,3-fucosyltransferase activity. […] The different nature of the above enzymes was made further clear, when sulfated derivatives of LacNAc was tested as acceptors.

[2] = test system: α1,3-L-fucosyltransferase of the soluble fraction of human ovarian tumor; test: Assay of α1,3-fucosyltransferase with synthetic acceptors, partially purified enzyme of ovarian tumor soluble fraction; format: biochemical; settings: for [14C] Fucose Incorporated (CPM): acceptor 3.0 mM, 37° C. 18 h
Description: as §1
As shown in the scheme set forth in FIG. 2, the α-L-fucosidase-free extract of the tissue (40 g), after concentration by 80% (NH4)2 SO4 precipitation was fractionated on bovine IgG glycopep-Sepharose in batches of 25 ml. After washing the column with the equilibration buffer, the bound enzyme was eluted with 1 M NaCl in the same buffer. The protein positive fractions were pooled and processed as shown in the scheme 2.0 ml of the above preparation was loaded on a Sephacryl S-200 column (Superfine:2.6 cm×88.0 cm) equilibrated at 4° C. with 50 mM Tris-HC1, pH 7.0 containing 0.15M NaCl and 0.1% Triton X-100 and eluted with the same buffer. Fractions of 3.0 ml were collected. The fucosyltransferase activity was located in the effluent fractions, by assaying first every 5th fraction and then obtaining the activity profile by assaying the alternate fractions in that range, using 2'-fucosyl LacNAc as the acceptor. […] Its elution position, which is slightly later than BSA, run separately on the same column, indicates its molecular weight as <67,000 daltons. […] The enzyme has been purified 66 fold over the soluble extract with a recovery of 6.2%. The enzyme at this stage lost its activity either kept frozen at -20° C. or left at 4° C. for more than a week. However, the enzyme at the end of the previous step was fairly stable for at least two months at 4° C. So this preparation of enzyme was used in acceptor ability comparison studies.
When α1,3-fucosyltransferase activity of the partially purified enzyme preparation from the soluble portion of ovarian tumor was measured and compared with the activity of other acceptors, the following results were obtained. 2'-methyl LacNAc, LacNAc and Galβ1, 3GlcNAc were respectively 100.0%, 60.6% and 565.5% active, indicating the presence of both α1,3 and α1,4 fucosyltransferase activities in this preparation.

[3] = 2'-methyl LacNAc = 100, listed as 3'-Sulfo LacNAc
[4] = 2'-methyl LacNAc = 100, listed as 3'-sulfo LacNAc

| Structure (SMILES) | Relative Percent ([1]; 2'-methyl LacNAc = 100) | [14C] Fucose Incorporated (CPM) [1] | Relative Percent ([2]; 2'-methyl LacNAc = 100) | [14C] Fucose Incorporated (CPM) [2] | Relative Percent [1, 3] | Relative Percent [1, 4] | Relative Percent [2, 3] | Relative Percent [2, 4] |
| --- | --- | --- | --- | --- | --- | --- | --- | --- |
| CO[C@H]1[C@H](O[C@H]2[C@H](O)[C@@H](NC(C)=O)C(O)O[C@@H]2CO)O[C@H](CO)[C@H](O)[C@@H]1O (stereo partly drawn) [2'-methyl LacNAc] | 100% | 48252 CPM | 100% | 7392 CPM |  |  |  |  |
| CC(=O)N[C@H]1C(O)O[C@H](CO)[C@@H](O[C@@H]2O[C@H](CO)[C@H](O)[C@H](OS(=O)(=O)O)[C@H]2O)[C@@H]1O (stereo partly drawn) [3'-Sulfo-LacNAc, SODIUM β-D-GALACTOPYRANOSYL 3-SULFATE-(1→4)-2-ACETAMIDO-2-DEOXY-D-GLUCOPYRANOSE] | 39.0% | 18793 CPM | 447.1% | 33049 CPM | 39% | 39.0% | 447% | 447% and 447.1% |
